Experimental data reported in PMC3629081, “Tetrahydropyrazolo[1,5-a]Pyrimidine-3-Carboxamide and N-Benzyl-6′,7′-Dihydrospiro[Piperidine-4,4′-Thieno[3,2-c]Pyran] Analogues with Bactericidal Efficacy against Mycobacterium tuberculosis Targeting MmpL3” (PLoS ONE, 2013).
Values after ≈ are worked out from the molar mass of the structure shown. Values joined by “and” are separate entries in the source; they are usually repeats but may differ in a detail not shown here. Identical values can stand only once. Like-named read-outs stand apart in the source and are kept apart here. Marks after values point to notes of the source that are not given here.

Legend:
HepG2 cells = type: cell-based, human; conditions: for HepG2 Tox50: 48 h incubation
Protocol: Cytotoxicity assay was performed measuring the viability of immortalized human cell line culture (HepG2) after 48 h of incubation with a full curve concentration of the test substances in culture medium. For read out of viability of cells we used Resazurine (BDH®). Resazurin is used as an oxidation-reduction indicator that yields a colorimetric change and a fluorescent signal in response to metabolic activity. As cell grow, metabolic activity results in a chemical reduction of Resazurin indicated by a change from non-fluorescent blue to the reduced fluorescent pink form. The degree of Resazurin fluorescence is therefore, an indicator of the number of viable cells in the culture system. The cytotoxicity results were expressed as Tox50 values (IC50). This was done by calculating the concentration of test compounds that would result in a decrease in Resazurin reduction equivalent to 50% of the concurrent control values. The protocol we followed is described below briefly.
Cell line HepG2 (HB-8065) were cultured with fresh medium (Essential Minimum Eagle Medium, EMEM, supplemented with 5% fetal calf serum and 2 mM L-glutamine) the day before subculturing the plates. On the day of the assay, cells (10,000 cells/well) were seeded in a black 96-well collagen coated microplate with clear bottom, (Becton Dickinson®) except in column 11, that was dispensed only 100 μL of culture medium.
Stock solution from each test substances was prepared in 100% DMSO. Ten serial 1∶2 dilutions were prepared of each test compound and, finally, a 1∶200 dilution was made, in medium, to achieve a final concentration of 0.5% of DMSO. Resazurin tablets (Merck®) were dissolved in phosphate buffer saline at a concentration of 0.0042%.
After 24 h of incubation of the cells (37°C, 5% CO2, 95% relative humidity), a volume of 150 μL of culture medium containing the appropriate test concentrations of the compounds dilutions were added to cells in two replicates. In column 12, only 150 μL of 0.5% DMSO was added (blank control). Then, cells were exposed to test compounds for 48 h. After that, medium was removed and Resazurin solution was added to each well and incubated for further 1.5 h. Fluorescence was measured at an excitation wavelength of 515 nm and an emission wavelength of 590 nm in a Microplate reader 1420 Multilabel HTS counter, Victor 2, (Wallac®) The fluorescence value of each well is corrected by subtracting the background value (average of column 11) from the absolute value. The percentages of inhibition are calculated relatively to the DMSO control wells (average of column 12). For each compound, the average value of the duplicate samples is calculated. Data were processed using an Excel spreadsheet and GraphPad Software analysis. Tox50 values were calculated from the Sigmoidal dose-response (variable slope) curves by nonlinear regression analysis.

[1] = type: in vitro ADME, mouse
Protocol: (§1) Pooled mouse, rat, dog and human liver microsomes were purchased from Xenotech. Microsomes (final protein concentration 0.5 mg/ml, MgCl2 (final concentration 5 mM) and test compound (final substrate concentration 0.5 µM; final DMSO concentration 0.5 %) in 0.1 M phosphate buffer pH 7.4 were pre-incubated at 37°C prior to the addition of NADPH (final concentration 1 mM) to initiate the reaction. The final incubation volume was 600 µl. Control incubation was included for each compound tested where 0.1 M phosphate buffer pH 7.4 was added instead of NADPH (minus NADPH). One control compound was included with each species. All incubations were performed singularly for each test compound. Each compound was incubated for 30 minutes and samples (90 µl) of incubate were taken at 0, 5, 10, 20 and 30 minutes. The control (minus NADPH) was sampled at 0 and 30 minutes only. The reactions were stopped by the addition of sample to 200 µl of acetonitrile:methanol (3∶1) containing an internal standard. The terminated samples were centrifuged at 3700 rpm for 15 minutes at 4°C to precipitate the protein. Quantitative analysis: following protein precipitation, the samples were analyzed using specific LC-MS/MS conditions. Data analysis: from a plot of ln peak area ratio (compound peak area/internal standard peak area) against time, the gradient of the line was determined. Subsequently, half-life and intrinsic clearance were calculated using the equations below:
(§2) Elimination rate constant (k) = (-gradient) Half life [drawing 1]
(§3) Intrinsic Clearance (CLint) (ml/min/g protein) = [drawing 2] where V = Incubation volume ml/g microsomal protein.

[2] = type: in vitro ADME, human; conditions: for Cli human: human microsomes
Protocol: as §1, §2, §3

M. tuberculosis = test: Killing kinetics assay; type: cell-based, Mycobacterium tuberculosis; conditions: for reduction of cfu counts after one week of treatment: 20x MIC; for in vitro killing behaviour: kill rate over 7 days
[3] = system: panel of Gram-positive and Gram-negative organisms; test: General antimicrobial activity assay (broth microdilution); type: cell-based; conditions: read-out: Antibacterial panel IC50
Protocol: Whole-cell antimicrobial activity was determined by broth microdilution using the Clinical and Laboratory Standards Institute (CLSI) recommended procedure, Document M7-A7, “Methods for Dilution Susceptibility Tests for Bacteria that Grow Aerobically”. Some compounds have been evaluated against a panel of Gram-positive and Gram-negative organisms, including Enterococcus faecium, Enterococcus faecalis, Haemophilus influenzae, Moraxella catarrhalis, Streptococcus pneumoniae, Escherichia coli and Streptococcus pyogenes. The MIC was determined as the lowest concentration of compound producing a >80 % reduction in fluorescence observed.

M. bovis BCG = type: cell-based, Mycobacterium bovis BCG
[4] = in words
[5] = system: clinical M. tuberculosis isolates; test: MIC against clinical strains (BACTEC MGIT 960); type: cell-based, Mycobacterium tuberculosis; conditions: for MIC90: Mycobacterium tuberculosis, read-out: M. tuberculosis MIC90 (108 strains)
[6] = system: GFP expressing M. tuberculosis H37Rv in Raw264.7 macrophages; test: microbe, parasite or virus in culture; type: cell-based, Mycobacterium tuberculosis; conditions: read-out: Intracell. H37Rv MIC80
M. tuberculosis H37Rv [7] = test: MIC determination against M. tuberculosis H37Rv (resazurin); type: cell-based, Mycobacterium tuberculosis
in vivo = test: in vivo; parameters: species or system mice
Protocol: Figure 5 Whole blood pharmacokinetic profile and main parameters of compounds 3 and 4. Compounds were given orally at 50 mg/Kg suspension in 1% aqueous methylcellulose. Main pharmacokinetic parameters were established after non-compartimental analysis. AUC: Area Under the Curve; Cmax: Maximum concentration observed in whole blood; %F: percentage bioavailability. TEXT PRINTED IN THE PICTURE: 3: Tmax (h): 3.0 ± 2.8 (Dose (mg/kg): 50); Cmax (μg/ml): 1.8 ± 0.5 (Dose (mg/kg): 50); AUC0-24h (μg*h/ml): 26.2 ± 9.4 (Dose (mg/kg): 50); DNAUC0-24h (μg*h/ml per mg/kg): 0.6 ± 0.2 (Dose (mg/kg): 50); %F: 96.1 ± 32.2 (Dose (mg/kg): 50) | 4: Tmax (h): 0.7 ± 0.1 (Dose (mg/kg): 50); Cmax (μg/ml): 1.3 ± 0.2 (Dose (mg/kg): 50); AUC0-24h (μg*h/ml): 8.7 ± 0.6 (Dose (mg/kg): 50); DNAUC0-24h (μg*h/ml per mg/kg): 0.20 ± 0.01 (Dose (mg/kg): 50); %F: 54.6 ± 5.4 (Dose (mg/kg): 50)
Experimental compounds were administered by oral gavage at 50 mg/kg single dose at a volume of 20 ml/kg to n = 5 mice. All mice received treatment in the fed state. Peripheral total blood was the compartment chosen for the establishment of compound concentrations: 25 μl of blood was taken from the lateral tail vein for each mouse at 15, 30 and 45 minutes, 1, 2, 4, 8 and 24 hours. LC-MS was used as the analytical method of choice for the establishment of compound concentration in blood with a sensitivity of LLQ = 1–5 ng/ml in 25 µl blood. The non-compartmental data analysis (NCA) was performed with WinNonlin Phoenix 6.3 (Pharsight, Certara L.P) and supplementary analysis was performed with GraphPad Prism 5 (GraphPad Software, Inc).

M. tuberculosis H37Rv [8] = test: In vivo efficacy in acute TB murine model; parameters: species or system Mycobacterium tuberculosis
[9] = Sensitive phenotype, 60 strains
[10] = monoR H (Isoniazid), 20 strains
[11] = monoR Rf (Rifampicin), 3 strains
[12] = monoR Sm (Streptomycin), 11 strains
[13] = Mycobacterium tuberculosis, H37RV

SMILES	HepG2 Tox50 (HepG2 cells)	Cli mouse ([1]; mouse microsomes)	Cli human [2]	solubility (physchem)	reduction of cfu counts after one week of treatment (M. tuberculosis)	in vitro killing behaviour (M. tuberculosis)	IC50 [3]	effect on TMM in [14C]-labelled cultures (M. bovis BCG)	effect on other classes of lipids, in particular phospholipids (M. bovis BCG)	Range of MIC's [5]	MIC90 [5]	Range of MIC's [5, 9]	Range of MIC's [5, 10]	Range of MIC's [5, 11]	Range of MIC's [5, 12]	MIC80 [6, 13]	MIC (M. tuberculosis H37Rv [7]; Mycobacterium tuberculosis)	further results
CCc1ccc([C@H]2C[C@@H](C(F)(F)F)n3ncc(C(=O)NCc4ccc(OC)cc4)c3N2)cc1 [Compound 1, (5R,7S)-5-(4-ethylphenyl)-N-(4-methoxybenzyl)-7-(trifluoromethyl)-4,5,6,7-tetrahydropyrazolo[1,5-a]pyrimidine-3-carboxamide]	>25 ^* µM	0.69 mL/min/g	0.29 mL/min/g	5 µM (≈ 2.29 µg/mL)	> 3 log cfu	bactericidal	≥ 32 µM	accumulation of TMM	unaffected	0.16 to 2.5 µM and 0.3 to 5 µM	0.6 µM (≈ 0.275 µg/mL)	0.16 to 0.6 µM	0.16 to 0.6 µM	0.16 to 0.3 µM	0.16 to 0.6 µM	0.16 µM (≈ 0.0734 µg/mL)	0.3 µM (≈ 0.138 µg/mL)	signs of cytotoxicity at the maximum concentration tested (HepG2 cells; maximum concentration where compound was in solution): did not show initial signs of cytotoxicity; solubility in different media [4]: very low solubility
c1cc2c(s1)CCOC21CCN(Cc2ccc3c(c2)OCCO3)CC1 [Compound 2]	36 µM	>30 mL/min/g	25 mL/min/g	266 µM (≈ 95.1 µg/mL)	> 3 log cfu	bactericidal	≥ 16 µM	accumulation of TMM	unaffected	0.3 to 1.25 µM	0.6 µM (≈ 0.214 µg/mL)	0.3 to 1.25 µM	0.3 to 10 µM	0.6 to 10 µM	0.3 to 10 µM	0.63 µM (≈ 0.225 µg/mL)	0.3 µM (≈ 0.107 µg/mL)	intrinsic clearance values in mice microsomes ([1]; in words): poor; intrinsic clearance values in human microsomes ([2]; in words): poor
CCc1ccc([C@H]2C[C@@H](C(F)(F)F)n3ncc(C(=O)NCc4ccc5c(c4)OCO5)c3N2)cc1 [Compound 3]	> 25 µM	0.8 mL/min/g	–	–	–	–	–	–	–	–	–	–	–	–	–	–	< 0.5 µM	DNAUC0-24h (in vivo; mice, oral 50 mg/kg, whole blood): 0.6 ± 0.2 μg*h/ml per mg/kg; AUC(0-t) (in vivo; mouse, in vivo, po, 50 mg/kg, mice, oral 50 mg/kg, whole blood, read-out: AUC0-24h): 26200 ± 9400 ng·h/mL; AUC(0-t) (in vivo; mouse, in vivo, po, 50 mg/kg, po 50 mg/kg (Figure 4), read-out: AUC 24h): 26500 ng·h/mL; AUC (in vivo; mouse, in vivo, po, 50 mg/kg, minimum requirement fulfilled, read-out: AUC after oral administration 50 mg/kg): > 1000 ng·h/mL; bioavailability (in vivo; mouse, in vivo, mice, oral 50 mg/kg, whole blood, read-out: %F): 96.1 ± 32.2%; Cmax (in vivo; mouse, in vivo, mice, oral 50 mg/kg, whole blood, read-out: Cmax): 1800 ± 500 ng/mL; Tmax (in vivo; mouse, in vivo, mice, oral 50 mg/kg, whole blood, read-out: Tmax): 3 ± 2.8 h; reduction in lung bacterial load (M. tuberculosis H37Rv [8]; 100 mg/kg orally once a day, day 1 to day 8, B6 mice): 1.5 log units; reduction in lung bacterial load (M. tuberculosis H37Rv [8]; 300 mg/kg orally once a day, day 1 to day 8, B6 mice): 2.2 log units; MIC80 [6]: 0.31 µM (≈ 0.146 µg/mL); MIC (M. tuberculosis H37Rv [7]): 0.16 µM (≈ 0.0756 µg/mL)
Cl.FC(F)(F)Oc1ccc(Oc2ccc(CN3CCC4(CC3)OCCc3sccc34)cc2)cc1 [Compound 4]	36 µM	–	–	–	–	–	–	–	–	–	–	–	–	–	–	–	–	Cli mouse ([1]; mouse, pH 7.4): 1.2 mL/min/g; AUC (in vivo; mouse, in vivo, po, 50 mg/kg): > 1000 ng·h/mL; Cmax (in vivo; mouse, in vivo, po, 50 mg/kg): 1300 ± 200 ng/mL; DNAUC0-24h (in vivo; mouse, in vivo, po, 50 mg/kg): 0.20 ± 0.01 μg*h/ml per mg/kg; Tmax (in vivo; mouse, in vivo, po, 50 mg/kg): 0.7 ± 0.1 h; bioavailability (in vivo; mouse, in vivo, po, 50 mg/kg): 54.6 ± 5.4%; AUC(0-t) (in vivo; mouse, in vivo, po, 50 mg/kg, AUC0-24h): 8700 ± 600 ng·h/mL; AUC(0-t) (in vivo; mouse, in vivo, po, 50 mg/kg, AUC 24h): 8700 ng·h/mL; reduction in lung bacterial load (M. tuberculosis H37Rv [8]; in vivo): 2.3 log units and 2.7 log units
